{"source": "patent US6599713B1", "about": "“Method for quantitating leukocyte count in whole blood sample” (priority 1999, dated 2003)", "key": {"[1]": {"system": "white blood cells contained in a whole blood sample", "assay": "MPO-releasing effects of various surfactants on whole blood, ELISA (Examples 3 to 5)", "type": "cell-based, human", "conditions": "60 minutes on ice", "protocol": "10 ml of healthy human whole blood was collected using a 28 G winged intravenous injection needle (manufactured and sold by Terumo Corporation, Japan), and immediately mixed with 10 mg of EDTA-2K (manufactured and sold by Dojin Laboratories, Japan), and the resultant EDTA-containing whole blood sample was subjected to the below-described various measurements within 1 hour from the blood collection.\n500 μl of the blood was put in a 2-ml Eppendorf tube, and 500 μl of a 1% (w/v) aqueous surfactant solution was added to the tube, and the resultant mixture was stirred for 2 seconds by a Vortex mixer. Subsequently, the mixture was allowed to stand for 60 minutes on ice to thereby lyze the white blood cells. After the lysis of the white blood cells, 100 μl of the mixture was taken out and added to 900 μl of a PBS solution containing dissolved therein 1% BSA (trade name: “Sigma fraction V”, manufactured and sold under the brand of SIGMA™, U.S.A.). The resultant mixture was stirred by a Vortex mixer, and then 10 μl of the mixture was taken out and diluted 2,000-fold with 1% BSA/PBS solution. The resultant diluted mixture was subjected to a measurement by ELISA.\nThe outline of the ELISA is as follows. A 5 μg/ml PBS solution of an anti-MPO antibody was put into the wells of a Nunc Immuno Plate (manufactured and sold by Nalge Nunc International, Denmark) in an amount of 100 μl per well. The solution in each well was sealed and subjected to a reaction for 18 hours at 4° C. thereby immobilizing the primary antibody. The wells were washed with a washing solution (0.05% Tween™ 20/PBS) and then subjected to blocking for 1 hour at room temperature by using 200 μl of a blocking solution (1% BSA/PBS), and then washed twice with the washing solution. […] The wells were washed 5 times with a washing solution, and 100 μl of a just-prepared TMB solution (manufactured and sold by Kirkegaad & Perry Laboratories, U.S.A.) was added thereto to effect a color reaction. 2 Minutes after the start of the color reaction, 100 μl of a 1 N sulfuric acid solution (manufactured and sold by Nacalai Tesque, Inc., Japan) was added to the wells to thereby terminate the reaction. Then, the absorbance at 450 nm was measured by means of a plate reader (manufactured and sold by Bio-Rad Laboratories, U.S.A.).\nWith respect to the measurement of the MPO concentration of the sample, MPO (manufactured and sold by Elastin Products Co., INC., U.S.A.) was added to the sample so that the final concentration of the added MPO became 5 ng/ml or 10 ng/ml, and the resultant mixture was measured with respect to the MPO concentration. From the obtained value of MPO concentration, a calibration curve for each sample was obtained. The obtained calibration curve was corrected, based on its relationship with a calibration curve obtained with respect to a standard MPO solution, and the corrected calibration curve of each sample was used to determine the MPO concentration of the whole blood. The measurement was conducted 3 times, and a mean value±standard deviation was obtained."}, "[2]": {"system": "white blood cells contained in the whole blood", "assay": "Concentration of surfactant and release amount of MPO in whole blood, ELISA (Example 2)", "type": "cell-based, human", "conditions": "60 minutes on ice, mean ± SD of 3", "protocol": "10 ml of healthy human whole blood was collected and immediately mixed with 10 mg of EDTA-2K (manufactured and sold by Dojin Laboratories, Japan), and the resultant EDTA-containing whole blood sample was subjected to the below-described various measurements within 1 hour from the blood collection.\n500 μl of the blood was put in a 2-ml Eppendorf tube, and 500 μl of an aqueous surfactant solution having a surfactant concentration of 0.1, 0.2, 0.4, 0.6, 1, 2, 4, 10 or 20% (w/v) was added to the tube, and the resultant mixture was stirred for 2 seconds by a Vortex mixer. Subsequently, the mixture was allowed to stand for 60 minutes on ice to thereby lyze the white blood cells. […] After the lysis of the white blood cells, 100 μl of the mixture was taken out and added to 900 μl of a PBS solution containing dissolved therein 1% BSA (trade name: “Sigma fraction V”, manufactured and sold under the brand of SIGMA™, U.S.A.). The resultant mixture was stirred by a Vortex mixer, and then 10 μl of the mixture was taken out and diluted 2,000-fold with 1% BSA/PBS solution. The resultant diluted mixture was subjected to a measurement by ELISA.\nThe outline of the ELISA is as follows. A 5 μg/ml PBS solution of a rabbit anti-human myeloperoxidase antibody (manufactured and sold by Calbiochem-Novabiochem Corporation, U.S.A.)(hereinafter, frequently referred to as “anti-MPO antibody”) was put into the wells of a Nunc Immuno Plate (manufactured and sold by Nalge Nunc International, Denmark) in an amount of 100 μl per well. The solution in each well was sealed and subjected to a reaction for 18 hours at 4° C. thereby immobilizing the primary antibody. The wells were washed with a washing solution (0.05% Tween™ 20/PBS) and then subjected to blocking for 1 hour at room temperature by using 200 μl of a blocking solution (1% BSA/PBS), and then washed twice with the washing solution. Then, the above-obtained diluted mixture (blood sample which had been treated with a surfactant and then diluted) was put in the wells in an amount of 100 μl per well, and subjected to a reaction for 2 hours at room temperature. Then, the wells were washed 3 times with the washing solution, and a 5 μg/ml solution of an anti-MPO antibody labeled with horseradish peroxidase (hereinafter referred to as “HRP”) was put in the wells in an amount of 100 μl per well, and subjected to a reaction for 1 hour at room temperature. As the above-mentioned HRP-labeled anti-MPO antibody, an anti-human MPO antibody (manufactured and sold by Calbiochem-Novabiochem Corporation, U.S.A.) which had been labeled with HRP Grade IV (manufactured and sold under the brand of SIGMA™, U.S.A.) was employed. The labeling was performed by the method described in Analytical Biochemistry, 132, 68-73 (1983). The wells were washed 5 times with the washing solution, and 100 1 μl of a just-prepared TMB solution (manufactured and sold by Kirkegaad & Perry Laboratories, U.S.A.) was added thereto to effect a color reaction. 2 Minutes after the start of the color reaction, 100 μl of a 1 N sulfuric acid solution (manufactured and sold by Nacalai Tesque, Inc., Japan) was added to the wells to thereby terminate the reaction. Then, the absorbance at 450 nm was measured by means of a plate reader (manufactured and sold by Bio-Rad Laboratories, U.S.A.). The measurement was conducted 3 times, and a mean value±standard deviation was obtained."}, "[3]": {"system": "white blood cells in whole blood", "conditions": "nonionic surfactants, dependence on HLB value", "procedure": "Blood collection, treatment with a surfactant, and ELISA were performed in the same manner as in Example 3 in order to measure the MPO-releasing effects of the below-mentioned various surfactants.\nThese surfactants were individually dissolved in purified water (manufactured and sold by Kyoei Seiyaku Co., Japan) so as to obtain 10% or 2% (w/v) aqueous solutions. Before use in the testing, each of the aqueous solutions was further diluted to obtain a 1% (w/v) aqueous solution, and the 1% (w/v) aqueous solution was used in the testing within 15 hours from the preparation thereof. As a control, purified water (manufactured and sold by Kyoei Seiyaku Co., Japan) was used."}, "[4]": {"conditions": "Example 5 (Table 5): 500 μl blood + 500 μl 1% (w/v) surfactant solution, mean ± SD"}, "[5]": {"conditions": "Example 3 (Table 3): 500 μl blood + 500 μl 1% (w/v) surfactant solution, mean ± SD of 3"}, "[6]": {"conditions": "Example 4 (Table 4): 500 μl blood + 500 μl 1% (w/v) surfactant solution, mean ± SD"}, "[7]": {"conditions": "concentration of surfactant 0.05 % (w/v)"}, "[8]": {"conditions": "concentration of surfactant 0.10 % (w/v)"}, "[9]": {"conditions": "concentration of surfactant 0.20 % (w/v)"}, "[10]": {"conditions": "concentration of surfactant 0.30 % (w/v)"}, "[11]": {"conditions": "concentration of surfactant 0.50 % (w/v)"}, "[12]": {"conditions": "concentration of surfactant 1.00 % (w/v)"}, "[13]": {"conditions": "concentration of surfactant 2.00 % (w/v)"}, "[14]": {"conditions": "concentration of surfactant 5.00 % (w/v)"}, "[15]": {"conditions": "concentration of surfactant 10.00 % (w/v)"}}, "data": [{"compound": "CCCCCCCCCCCC[N+](C)(C)C.[Br-]", "note": "[DTAB, n-Dodecyltrimethylammonium Bromide]", "values": [{"measurement": "MPO concentration of whole blood", "setting": "[1]; [4]", "value": "8.05 ± 0.64", "unit": "µg/mL"}]}, {"compound": "CCCCCCCCCCCCCCCC[N+](C)(C)C.[Br-]", "note": "[HTAB, Hexadecyltrimethylammonium Bromide]", "values": [{"measurement": "MPO concentration of whole blood", "setting": "[1]; [5]", "value": "5.80 ± 1.41", "unit": "µg/mL"}, {"measurement": "MPO concentration of whole blood", "setting": "[1]; [6]", "value": "9.58 ± 0.53", "unit": "µg/mL"}, {"measurement": "MPO concentration of whole blood", "setting": "[1]; [4]", "value": "7.15 ± 2.69", "unit": "µg/mL"}]}, {"compound": "CCCCCCCCCCCCCCCC[N+](C)(C)C.[Cl-]", "note": "[HTAC, Hexadecyltrimethylammonium Chloride]", "values": [{"measurement": "MPO concentration of whole blood", "setting": "[1]; [6]", "value": "10.93 ± 0.82", "unit": "µg/mL"}, {"measurement": "MPO concentration of whole blood", "setting": "[1]; [4]", "value": "7.35 ± 0.28", "unit": "µg/mL"}]}, {"compound": "CCCCCCCCCCCC[n+]1ccccc1.[Cl-]", "note": "[LPC, 1-Laurylpyridinium Chloride]", "values": [{"measurement": "MPO concentration of whole blood", "setting": "[1]; [6]", "value": "9.58 ± 1.39", "unit": "µg/mL"}, {"measurement": "MPO concentration of whole blood", "setting": "[1]; [4]", "value": "7.57 ± 0.60", "unit": "µg/mL"}]}, {"compound": "CCCCCCCCCCCCCCCCCC[N+](C)(C)C.[Cl-]", "note": "[OTAC, Octadecyltrimethylammonium Chloride]", "values": [{"measurement": "MPO concentration of whole blood", "setting": "[1]; [4]", "value": "7.47 ± 0.38", "unit": "µg/mL"}]}, {"compound": "CCCCCCCCCCCCCC[N+](C)(C)C.[Br-]", "note": "[TTAB, Tetradecyltrimethylammonium Bromide]", "values": [{"measurement": "MPO concentration of whole blood", "setting": "[1]; [6]", "value": "9.33 ± 1.30", "unit": "µg/mL"}, {"measurement": "MPO concentration of whole blood", "setting": "[1]; [4]", "value": "8.08 ± 0.11", "unit": "µg/mL"}]}, {"compound": "α-(4-Nonylphenyl)-ω-hydroxypoly(oxy-1,2-ethanediyl) [Nissan Nonion NS-208.5]", "values": [{"measurement": "MPO concentration of whole blood", "setting": "[1]; [5]", "value": "6.20 ± 1.51", "unit": "µg/mL"}]}, {"compound": "α-[4-(1,1,3,3,-Tetramethylbutyl)phenyl]-ω-hydroxypoly(oxy-1,2-ethanediyl) [Igepal ™ CA630]", "values": [{"measurement": "MPO concentration of whole blood", "setting": "[1]; [5]", "value": "6.23 ± 1.42", "unit": "µg/mL"}, {"measurement": "Release amount of MPO in whole blood", "setting": "[2]; [7]", "value": "0.103 ± 0.005", "unit": "Abs. 450 nm"}, {"measurement": "Release amount of MPO in whole blood", "setting": "[2]; [8]", "value": "0.156 ± 0.009", "unit": "Abs. 450 nm"}, {"measurement": "Release amount of MPO in whole blood", "setting": "[2]; [9]", "value": "0.205 ± 0.007", "unit": "Abs. 450 nm"}, {"measurement": "Release amount of MPO in whole blood", "setting": "[2]; [10]", "value": "0.211 ± 0.008", "unit": "Abs. 450 nm"}, {"measurement": "Release amount of MPO in whole blood", "setting": "[2]; [11]", "value": "0.249 ± 0.002", "unit": "Abs. 450 nm"}, {"measurement": "Release amount of MPO in whole blood", "setting": "[2]; [12]", "value": "0.220 ± 0.008", "unit": "Abs. 450 nm"}, {"measurement": "Release amount of MPO in whole blood", "setting": "[2]; [13]", "value": "0.208 ± 0.003", "unit": "Abs. 450 nm"}, {"measurement": "Release amount of MPO in whole blood", "setting": "[2]; [14]", "value": "0.199 ± 0.018", "unit": "Abs. 450 nm"}, {"measurement": "Release amount of MPO in whole blood", "setting": "[2]; [15]", "value": "0.227 ± 0.006", "unit": "Abs. 450 nm"}]}, {"compound": "α-[4-(1,1,3,3,-Tetramethylbutyl)phenyl]-ω-hydroxypoly(oxy-1,2-ethanediyl) [Triton ™ X-114]", "values": [{"measurement": "MPO concentration of whole blood", "setting": "[1]; [5]", "value": "7.44 ± 1.81", "unit": "µg/mL"}, {"measurement": "Release amount of MPO in whole blood", "setting": "[2]; [7]", "value": "0.120 ± 0.026", "unit": "Abs. 450 nm"}, {"measurement": "Release amount of MPO in whole blood", "setting": "[2]; [8]", "value": "0.131 ± 0.016", "unit": "Abs. 450 nm"}, {"measurement": "Release amount of MPO in whole blood", "setting": "[2]; [9]", "value": "0.207 ± 0.004", "unit": "Abs. 450 nm"}, {"measurement": "Release amount of MPO in whole blood", "setting": "[2]; [10]", "value": "0.198 ± 0.003", "unit": "Abs. 450 nm"}, {"measurement": "Release amount of MPO in whole blood", "setting": "[2]; [11]", "value": "0.259 ± 0.007", "unit": "Abs. 450 nm"}, {"measurement": "Release amount of MPO in whole blood", "setting": "[2]; [12]", "value": "0.240 ± 0.006", "unit": "Abs. 450 nm"}, {"measurement": "Release amount of MPO in whole blood", "setting": "[2]; [13]", "value": "0.245 ± 0.015", "unit": "Abs. 450 nm"}, {"measurement": "Release amount of MPO in whole blood", "setting": "[2]; [14]", "value": "0.239 ± 0.002", "unit": "Abs. 450 nm"}, {"measurement": "Release amount of MPO in whole blood", "setting": "[2]; [15]", "value": "0.243 ± 0.005", "unit": "Abs. 450 nm"}, {"measurement": "Efficiency for releasing intrinsic MPO from the white blood cells (in words)", "setting": "[3]", "value": "high activity to release intrinsic MPO"}]}]}
